# Test results as given in ChEMBL document CHEMBL5661955, “ASAP - In vitro cytotoxicity” (2024).
# Values joined by “and” are separate entries in the source; they are usually repeats but may differ in a detail not shown here. Equal entries are not always repeated.
# Key:
# [1] = Functional metabolic assay to measure dose dependent changes in cell viability from drug treatment in Vero E6/TMPRSS2 cells (cotreated with P-gp inhibitor, Elacridar). […] Cytotoxicity is reported via measuring absorbance and analysis of MTT/MTS assays in uninfected cells. The assay has been performed by Icahn School of Medicine at Mount Sinai.; format: toxicity, cell-based, VeroE6/TMPRSS2; conditions: chlorocebus sabaeus, p-gp concentration 2 uM
# [2] = Functional assay to measure dose dependent changes in cell viability from drug treatment in Vero E6 miRFP670 cells (cotreated with P-gp inhibitor, CP100356) that are infected with Dengue virus type 2 New Guinea C. […] Cytotoxicity is reported via via analysis of DAPI count using high-content imager. The assay has been performed by KU Leuven.; format: toxicity, cell-based, Vero C1008; conditions: chlorocebus sabaeus, p-gp concentration 500 nM
# [3] = Functional CPE-based assay to measure dose dependent changes in cell viability from drug treatment in Vero E6 miRFP670 cells (cotreated with P-gp inhibitor, CP100356). Cells are treated with antiviral candidates that have been serially diluted. Cytotoxicity is reported via analysis of MTS assays in uninfected cells. The assay has been performed by KU Leuven.; format: toxicity, Vero C1008; conditions: chlorocebus sabaeus, p-gp concentration 500 nM
# [4] = with CP100356 (P-gp inhibitor, concentration not stated)
# [5] = Vero E6/TMPRSS2 cells, with Elacridar (P-gp inhibitor, concentration not stated)
# [6] = Vero E6 miRFP670 cells, with CP100356 (P-gp inhibitor, concentration not stated)
SMILES,CC10 ([1]; veroe6/tmprss2),"CC50 [2, 4] [µM]","CC50 [1, 5] [µM]",further results
COc1ccc(CCNc2nc(N3CCc4cc(OC)c(OC)cc4C3)c3cc(OC)c(OC)cc3n2)cc1OC,< 0.005 µM,–,–,–
C[C@@]1(O)[C@H](O)[C@@H](CO)O[C@H]1n1ccc(N)nc1=O,–,> 200,–,–
CCCCCC(=O)N[C@H](C(=O)NCc1ccc(N)nc1)c1ccc(OCc2ccccc2)cc1,–,3.63,–,–
N#Cc1cc(Cl)cc(C(=O)Nc2ccc3c(c2)CNC3)c1,> 50 µM,–,> 50,–
Cc1ccc(S(=O)(=O)CNC(=O)[C@H](Nc2ccc3c(c2)CNC3)c2cc(Cl)cc3[nH]ncc23)cc1,> 50 µM,–,> 50,–
O=C(Nc1ccc2c(c1)CNC2)c1cc(Cl)ccc1SC1CCCC1,41.64 µM,–,> 50,–
N#Cc1cc(Cl)cc([C@H](C#N)Nc2ccc3c(c2)CNC3)c1,> 50 µM,–,> 50,–
O=C(Nc1ccc2c(c1)CNC2)c1cc(Br)cc2[nH]c(C3CCOCC3)nc12,3.442 µM,–,27.8,–
CCc1cc(Cl)cc(C(=O)Nc2ccc3c(c2)CNC3)c1,10.908 µM,–,> 50,–
Cc1ccc2cc(Cl)cc(C(=O)Nc3ccc4c(c3)CNC4)c2n1,2.835 µM,–,31.3,–
CN(C)C(=O)c1cc(CN)cc([C@@H]2C[C@H]2c2cc(Cl)cc(NC(=O)OCc3ccccc3)c2)c1,–,4.09,–,–
O=C(Nc1cnc2c(c1)CNCC2)c1cc(Cl)cc2[nH]ncc12,> 50 µM,–,> 50,–
CC(=Cc1cc(Cl)cc(NC(=O)OCc2ccccc2)c1)c1cccc(CN)c1,–,0.906,–,–
O=C(NCC1CCOCC1)[C@H](Nc1ccc2c(c1)CNC2)c1cc(Cl)cc2[nH]ncc12,> 50 µM,–,> 50,–
C=CC[C@H](Nc1cc(Cl)cc(NC(=O)OCc2ccccc2)c1)c1cccc(CN)c1,–,3.34,–,–
CCOC(=O)[C@H]1[C@H](c2cc(Cl)cc(NC(=O)OCc3ccccc3)c2)[C@H]1c1cccc(-c2nnn[nH]2)c1,> 50 µM,–,> 50,–
NCc1cccc([C@@H]2C[C@H]2c2cc(Cl)cc(NC(=O)OCc3ccccc3)c2)c1,> 50 µM,–,> 50,–
N#C[C@H](Nc1cccc(-c2nn[nH]n2)c1)c1cc(Cl)cc(NC(=O)OCc2ccccc2)c1,> 50 µM,–,> 50,–
NCc1cccc(NC(=O)C[C@H](NC(=O)OCc2ccccc2)c2ccc(OCc3ccccc3)c(Br)c2)c1,0.148 µM,–,38.4,–
C=CC[C@H](Nc1cccc(-c2nn[nH]n2)c1)c1cc(Cl)cc2[nH]ncc12,> 5 µM,–,> 5,–
NCc1cccc(NC(=O)c2cc(Cl)cc(CN)c2)c1,–,–,–,CC50 ([1]; veroe6/tmprss2): > 50 µM
NCc1ccc2c(c1)[C@H]1OCCC[C@H]1[C@H](c1cc(Cl)cc(NC(=O)OCc3ccccc3)c1)N2,–,5.8,–,–
CC[C@H](Cc1nnn[nH]1)c1ccc(NC(=O)c2cc(Cl)cc(-n3cccc3)c2)cc1,> 50 µM,–,> 50,–
O=S(=O)(Nc1cccc(-c2nnn[nH]2)c1)c1cc(Cl)cc(-c2ccccc2)c1,> 50 µM,–,> 50,–
O=C(Nc1cc(Cl)cc([C@H]2C[C@@H]2c2cccc(-c3nnn[nH]3)c2)c1)OCc1ccccc1,–,16.3,–,–
c1ccc2c(CN3CCC(c4cscn4)CC3)c[nH]c2c1,–,–,–,CC50 ([1]; veroe6/tmprss2): > 50 µM

SMILES,CC10 ([1]; veroe6/tmprss2),"CC50 [2, 4] [µM]","CC50 [1, 5] [µM]",further results
c1ccc(-c2csc(C3CCN(Cc4c[nH]c5ccccc45)CC3)n2)cc1,0.299 µM and 0.162 µM,> 10,–,CC50 ([1]; veroe6/tmprss2): > 10 µM and 20.1 µM
CC1(C)NCc2cc(NC(=O)c3cc(F)cc4[nH]ncc34)ccc21,–,–,–,"CC50 [3, 6]: > 50 µM"
C[C@@H](N)c1cccc(NC(=O)[C@H]2[C@H]3CCCCC[C@H]3[C@H]2NC(=O)OCc2ccccc2)c1,0.044 µM,–,> 50,–
CCOc1cccc(-c2ccc(S(=O)(=O)Nc3cc4c(cc3C(=O)O)CCC4)cc2)c1,5.671 µM,–,> 50,–
O=C(Nc1cc(Cl)cc(C(=O)Nc2cccc([C@H]3CCNC3)c2)c1)OCc1ccccc1,2.776 µM,–,20.1,–
O=C(O)Cn1ncc2cc(-c3cc(Cl)cc(NC(=O)OCc4ccccc4)c3)ccc21,–,> 50,–,–
CCOC(=O)Nc1cc(Cl)cc(C(=O)Nc2cccc(CN)c2)c1,> 50 µM,–,> 50,–
CCOc1cccc(-c2ccc(S(=O)(=O)Nc3ccc(Cl)cc3C(=O)O)cc2)c1,–,–,–,CC50 ([1]; veroe6/tmprss2): > 50 µM
NCCCCc1ccc(NC(=O)c2cc(Cl)cc(NC(=O)OCc3ccccc3)c2)cc1,> 50 µM,6.49,> 50,–
O=C(Nc1cc(Cl)cc(S(=O)(=O)Nc2cccc(-c3nn[nH]n3)c2)c1)OCc1ccccc1,> 50 µM,–,> 50,–
NCc1cccc(CNC(=O)[C@@H](NC(=O)OCc2ccccc2)c2ccc(OCc3ccccc3)cc2)c1,–,1.9,–,–
NCc1ccc(F)c(NC(=O)c2cc(Cl)cc(NC(=O)OCc3ccccc3)c2)c1,> 50 µM,–,> 50,–
O=C(Nc1cc(Cl)cc(CNc2cccc(-c3nn[nH]n3)c2)c1)OCc1ccccc1,–,> 50,–,–
O=C(O)CCc1ccc(NC(=O)c2cc(Cl)cc(NC(=O)OCc3ccccc3)c2)cc1,> 50 µM,–,> 50,–
O=C(Nc1cc(Cl)cc(C(=O)Nc2cc(Br)cc(-c3nnn[nH]3)c2)c1)OCc1ccccc1,> 50 µM,–,> 50,–
C=CC[C@H](Nc1cc(Cl)cc(NC(=O)OCc2ccccc2)c1)c1cccc(-c2nn[nH]n2)c1,0.105 µM,–,> 50,–
NCCCc1ccnc(NC(=O)c2cc(Cl)cc(NC(=O)OCc3ccccc3)c2)c1,2.116 µM,–,16.2,–
CC[C@H](Cc1nn[nH]n1)c1ccc(N[C@H](C(=O)NC)c2cc(Cl)cc(NC(=O)OCc3ccccc3)c2)cc1,> 50 µM,–,> 50,–
O=C(Nc1cc(Cl)cc([C@H](C#CCO)Nc2ccc(-c3nn[nH]n3)cc2)c1)OCc1ccccc1,–,> 50,–,–
CC(=Cc1cccc(CN)c1)c1cc(Cl)cc(NC(=O)OCc2ccccc2)c1,–,3.26,–,–
NCc1cccc(NC(=O)c2cc(Cl)cc(N3CCCC3=O)c2)c1,–,–,–,CC50 ([1]; veroe6/tmprss2): > 50 µM
CNC(=O)[C@H](Nc1cc(Cl)cc(NC(=O)OCc2ccccc2)c1)c1cccc(-c2nn[nH]n2)c1,> 50 µM,–,> 50,–
O=C(Nc1ccc2c(c1)CNC2)c1cc(Cl)cc2[nH]c(-c3cccc(F)c3)nc12,–,–,–,"CC50 [3, 6]: > 50 µM"
N[C@H]1CC[C@H](c2ccc(NC(=O)c3cc(Cl)cc(NC(=O)OCc4ccccc4)c3)cc2)C1,–,2.84,–,–
NCc1cccc(NC(=O)c2cc(Cl)cc(NC(=O)OCc3ccccc3)c2)c1,–,–,–,CC50 ([1]; veroe6/tmprss2): > 10 µM and 18.5 µM and 30.7 µM
CNC(=O)[C@H](Nc1cccc(CN)c1)c1cc(Cl)cc(NC(=O)OCc2ccccc2)c1,–,23.7,–,–

SMILES,CC10 ([1]; veroe6/tmprss2),"CC50 [2, 4] [µM]","CC50 [1, 5] [µM]",further results
CC[C@H](Cc1nnn[nH]1)c1ccc(NC(=O)[C@H]2[C@H]3CCCCC[C@H]3[C@H]2NC(=O)OCc2ccccc2)cc1,> 50 µM,–,> 50,–
CC(=O)Nc1cc(Cl)cc(C(=O)Nc2cccc(CN)c2)c1,> 50 µM,–,> 50,–
Clc1cccc([C@H](C#Cc2ccccc2)Nc2cccc(-c3nn[nH]n3)c2)c1,–,6.84,–,–
NCc1cccc(NC(=O)[C@H]2[C@H]3CCCCC[C@H]3[C@H]2NC(=O)OCc2ccccc2)c1,0.166 µM,–,10.3,–
O=C(Nc1cc(Cl)cc(C(=O)Nc2cc(-c3nnn[nH]3)ccc2F)c1)OCc1ccccc1,> 50 µM,–,> 50,–
O=C(Nc1ccc2c(c1)CN[C@H]2C1CC1)c1cc(F)cc2[nH]ncc12,–,–,–,"CC50 [3, 6]: > 50 µM"
Cc1ccc(-c2nnn[nH]2)cc1NC(=O)c1cc(Cl)cc(NC(=O)OCc2ccccc2)c1,> 50 µM,–,> 50,–
NCc1cccc(NC(=O)[C@@H](NC(=O)OCc2ccccc2)c2ccc(Br)c(Cl)c2)c1,0.556 µM,–,8.15,–
NCc1ccc([C@H]2C[C@@H]2c2cc(Cl)cc(NC(=O)OCc3ccccc3)c2)cc1,–,3.51,–,–
CCCC(=O)Nc1cc(Cl)cc(C(=O)Nc2cccc(CN)c2)c1,> 50 µM,–,> 50,–
C=CC[C@H](Nc1cccc(-c2nn[nH]n2)c1)c1cc(Cl)cc(NC(=O)OCc2ccccc2)c1,–,6.9,–,–
O=C(Nc1cc(Cl)cc(C(=O)Nc2ccc3c(c2)CCNC3)c1)OCc1ccccc1,–,2.91,–,–
O=C(Nc1ccc2c(c1)CNC2)c1cc(F)cc2nn(-c3ccccn3)nc12,–,–,–,CC50 ([2]; vero c1008): 7.3 µM and 1.92 µM; CC50 ([3]; vero c1008): 7.85 µM and 1.85 µM
O=C(Nc1cc(Cl)cc(C(=O)Nc2ccc3c(c2)CNCCO3)c1)OCc1ccccc1,< 0.023 µM,–,> 50,–
C[C@H]1NCc2cc(NC(=O)c3cc(F)cc4[nH]ncc34)ccc21,–,–,–,"CC50 [3, 6]: > 50 µM"
CNC(=O)c1cc(Cl)c(F)cc1NS(=O)(=O)c1ccc(Oc2ccccc2Cl)cc1,–,5.65,–,–
CNC(=O)[C@H](Nc1cc(Cl)cc(NC(=O)OCc2ccccc2)c1)c1cccc(CN)c1,–,24.2,–,–
O=C(Nc1ccc2c(c1)CNC2)c1cc(Cl)cc2[nH]c(-c3ccccc3)nc12,–,–,–,"CC50 [3, 6]: 2.09 µM"
CC[C@H](Cc1nnn[nH]1)c1ccc(NC(=O)c2cc(Cl)cc(C3CC3)c2)cc1,> 50 µM,–,> 50,–
O=C(Nc1ccc2c(c1)CNC2)c1cc(F)cc2[nH]c(-c3ccccc3)nc12,–,–,–,"CC50 ([2]; vero c1008): > 50 µM and 6.86 µM; CC50 [3, 6]: 5.81 µM; CC50 ([3]; vero c1008): 4.83 µM"
O=C(Nc1cc(Cl)cc(N[C@H](C#CCO)c2ccc(-c3nn[nH]n3)cc2)c1)OCc1ccccc1,> 50 µM,–,> 50,–
N#C[C@H](Nc1cc(Cl)cc(NC(=O)OCc2ccccc2)c1)c1ccc(-c2nn[nH]n2)cc1,–,13,–,–
O=C(O)c1cc(Cl)ccc1S(=O)(=O)NC1CCN(c2nc(C3CC3)cc(C(F)(F)F)n2)CC1,–,–,–,CC50 ([1]; veroe6/tmprss2): > 10 µM and 49.7 µM
NCc1cccc(NC(=O)c2cc(Cl)cc3c2CCC3)c1,–,–,–,CC50 ([1]; veroe6/tmprss2): > 50 µM
O=C(Nc1cc(Cl)cc(C(=O)Nc2ccc([C@@H]3C[C@H]3C(=O)O)cc2)c1)OCc1ccccc1,–,21.1,–,–
